Experimental data as given in article PMC8151276, “An Integrated Approach toward NanoBRET Tracers for Analysis of GPCR Ligand Engagement” (Molecules, 2021).

What was measured:
[1] = molecular target: T1, CNR2 (Homo sapiens, UniProt P34972); experiment: NanoBRET screen HiBiT-CNR2 in HEK293; type: binding
T1 construct: purchased Promega (in-house HiBiT-GPCR construct library, NanoBRET)
Experimental: (§1) Each tracer candidate was screened across the entire library of HiBiT-GPCR constructs using NanoBRET as the detection modality. As depicted in Figure 4A, the specificity of interactions was evaluated through decrease in BRET due to competitive displacement of a bound tracer by excess parental compound. Each tracer was analyzed for binding to each HiBiT-GPCR fusion in the absence and in the presence of competing parental compound. Briefly, HEK293 cells were transfected with HiBiT-GPCR constructs diluted into promoterless DNA to reduce expression and maximize translocation to the cell surface. Each tracer candidate was then screened at concentrations of 1 μM and 0.1 μM across cells expressing these fusions. Cells were treated for 1.5 h with tracer either alone or in the presence of 20 μM competing parental compound (i.e., control). BRET was measured upon addition of purified LgBiT and subsequent complementation with HiBiT genetically fused to a GPCR. The specificity of interactions was assessed through a decrease in BRET signal due to competitive displacement of the bound tracer. To further gauge the robustness of these interactions, the fold response over the control (i.e., BRETtracer/BRETcontrol) was calculated. We chose a 1.5-fold response, which translates to ≥7-fold signal over noise as the minimal threshold required to score an interaction as positive.
(§2) HiBiT-GPCR DNA constructs were diluted in 10 mM Tris pH 8 to a final concentration of 0.01 μg/μL, arrayed in 96-well plates and stored at −20 °C. For transfection, HEK293 cells were suspended in Opti-MEM (without phenol red) supplemented with 2% fetal bovine serum (Seradigm) and 100 units/mL penicillin–streptomycin (Gibco) at a final concentration of 220,000 cells/mL and dispensed into white 96-well plates at 90 μL/well. Subsequent transfections and screens were carried using an Agilent Bravo Automated Liquid Handling Platform. First, the 96-well HiBiT DNA arrays were diluted 25-fold in Opti-MEM (without serum or phenol red) to a final concentration of 0.0004 μg/μL and 20 μL of the diluted DNAs were transferred into new 96-well plates. Next, promoterless carrier DNA (1 μg/μL) was diluted 25-fold (0.04 μg/μL) and then dispensed into the diluted arrays at 20 μL/well. Following brief mixing, Viafect transfection reagent (Promega) diluted 16-fold into Opti-MEM was dispensed into the plates at 40 μL/well. After mixing by pipetting, plates were incubated for 10 min on the pipetting station deck. The DNA-transfection reagent complexes were then added to plates containing cells. To facilitate the screen, 10 μL of DNA-transfection reagent complexes were added in duplicates to the top 4 and bottom 4 rows, resulting in two identical 48-well arrays per plate. Plates with transfected cells were incubated for 18–20 h at 37 °C/5% CO2. A screen of each tracer across the entire library using two different concentrations requires duplicate plates of transfected cells. Depending on the number of tracers being screened, transfections can be scaled up using the same ratios. The next day, for each tracer, four 20× screening solutions in tracer dilution buffer (Promega) were prepared: two duplicates at final concentration of 20 μM and two duplicates at a final concentration of 2 μM. […] The four resulting solutions were diluted 4-fold in Opti-MEM without serum or phenol red to generate 5× solutions (5 µM and 0.5 µM tracer +/− 100 μM competing compound). To screen the library, a BioTek MultiFlo FX liquid dispenser was used to dispense 22.5 µL of tracer solution to the top 4 rows and 22.5 µL tracer + competing compound solution to the 4 bottom rows. Plates were briefly mixed on an orbital shaker and incubated for 1.5 h at room temperature. […] Plates were briefly mixed on an orbital shaker and incubated for 15 min to allow complementation.

[2] = molecular target: T2, CYSLTR1 (Homo sapiens, UniProt Q9Y271); experiment: NanoBRET screen HiBiT-CYSLTR1 in HEK293; type: binding
T2 construct: purchased Promega (in-house HiBiT-GPCR construct library, NanoBRET)
T2 sequence (Q9Y271 1-337): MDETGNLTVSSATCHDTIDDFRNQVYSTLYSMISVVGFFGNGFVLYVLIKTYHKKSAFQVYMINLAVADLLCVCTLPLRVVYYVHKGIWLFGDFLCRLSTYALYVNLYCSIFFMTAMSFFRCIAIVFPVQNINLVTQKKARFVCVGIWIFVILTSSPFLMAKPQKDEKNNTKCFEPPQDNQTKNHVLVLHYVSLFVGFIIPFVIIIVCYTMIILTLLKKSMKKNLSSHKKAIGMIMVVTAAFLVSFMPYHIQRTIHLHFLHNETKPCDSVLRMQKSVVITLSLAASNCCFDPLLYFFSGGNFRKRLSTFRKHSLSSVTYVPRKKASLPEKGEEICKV
Experimental: as §1, §2

T1 sequence (P34972 whole entry): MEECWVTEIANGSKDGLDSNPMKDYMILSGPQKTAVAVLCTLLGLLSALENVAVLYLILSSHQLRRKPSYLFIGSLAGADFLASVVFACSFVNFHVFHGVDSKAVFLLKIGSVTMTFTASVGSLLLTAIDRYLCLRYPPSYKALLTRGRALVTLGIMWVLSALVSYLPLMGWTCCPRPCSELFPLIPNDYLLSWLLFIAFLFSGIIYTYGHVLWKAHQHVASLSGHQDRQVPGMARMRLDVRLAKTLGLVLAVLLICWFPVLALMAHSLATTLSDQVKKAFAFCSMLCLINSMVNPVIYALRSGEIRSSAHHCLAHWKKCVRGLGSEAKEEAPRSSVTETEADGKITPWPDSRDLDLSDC

Row | Structure (SMILES) | NanoBRET Fold Response ([1]; CNR2, tracer 0.1μM) | NanoBRET Fold Response ([1]; CNR2, tracer 1μM) | NanoBRET Fold Response ([2]; CYSLTR1, tracer 0.1μM) | NanoBRET Fold Response ([2]; CYSLTR1, tracer 1μM) | further results
1 | O=C(CCc1ccc2n1[B-](F)(F)[N+]1=C(c3ccc[nH]3)C=CC1=C2)NCc1ccc(C(=O)NCCOCCC(=O)N[C@@H]2CC[C@@]3(O)[C@H]4Cc5ccc(O)c6c5[C@@]3(CCN4CC3CC3)[C@H]2O6)cc1 [Naltrexone-3-NB590] | 0.92 | 0.91 | 0.74 | 1.09 | 
2 | CCCn1c(=O)c2[nH]c(-c3ccc(OCC(=O)NCCNC(=O)CCOCCNC(=O)c4ccc(CNC(=O)CCc5ccc6n5[B-](F)(F)[N+]5=C(c7ccc[nH]7)C=CC5=C6)cc4)cc3)nc2n(CCC)c1=O [XAC-3-NB590] | 1.04 | 1.09 |  | 1.08 | 
3 | CC(C)N(CC[C@H](c1ccccc1)c1cc(CCNC(=O)c2ccc(CNC(=O)CCc3ccc4n3[B-](F)(F)[N+]3=C(c5ccc[nH]5)C=CC3=C4)cc2)ccc1O)C(C)C [Tolterodine-BZ-NB590] |  | 0.25 | 0.97 | 0.99 | 
4 | COc1ccc2[nH]c(-c3ccc(CNC(=O)CCOCCOCCOCCOCCNC(=O)CCc4ccc5n4[B-](F)(F)[N+]4=C(c6ccc[nH]6)C=CC4=C5)cc3)c(CCNC(C)=O)c2n1 [AzomelatoninICO9-2-NB590] |  |  |  |  | NanoBRET Fold Response ([1]; 0.1μM tracer): 0.97; NanoBRET Fold Response ([1]; 1μM tracer): 1.06; NanoBRET Fold Response ([2]; 0.1μM tracer): 0.86; NanoBRET Fold Response ([2]; 1μM tracer): 0.91
5 | CN1CCN(C2=Nc3cc(Cl)ccc3N(CC(=O)NCCOCCOCCOCCOCCNC(=O)CCc3ccc4n3[B-](F)(F)[N+]3=C(c5ccc[nH]5)C=CC3=C4)c3ccccc32)CC1 [Clozapine-c-2-NB590] |  |  |  |  | NanoBRET Fold Response ([1]; CNR2, 0.1μM tracer): 0.96; NanoBRET Fold Response ([1]; CNR2, 1μM tracer): 1.13; NanoBRET Fold Response ([2]; CYSLTR1, 0.1μM tracer): 0.90
6 | COc1ccccc1N1CCN(CCCCN2C(=O)c3ccc(CNC(=O)CCOCCNC(=O)c4ccc(CNC(=O)CCc5ccc6n5[B-](F)(F)[N+]5=C(c7ccc[nH]7)C=CC5=C6)cc4)cc3C2=O)CC1 [NAN-190-3-NB590] | 1.09 | 1.15 | 1.15 | 1.30 | 
7 | Cc1nc2n(c(=O)c1CCN1CCC(c3noc4cc(F)ccc34)CC1)CCCC2OC(=O)NCCOCCOCCOCCOCCNC(=O)CCc1ccc2n1[B-](F)(F)[N+]1=C(c3ccc[nH]3)C=CC1=C2 (stereo not drawn) [Risperidone-2-NB590] | 1.04 | 1.12 | 0.97 | 0.94 | 
8 | O=C(CCOCCOCCOCCOCCNC(=O)CCc1ccc2n1[B-](F)(F)[N+]1=C(c3ccc[nH]3)C=CC1=C2)NCCCN1CCN(C2=Nc3ccccc3Oc3ccc(Cl)cc32)CC1 [Loxapine-a-2-NB590] | 0.33 | 1.25 | 1.12 | 1.02 | 
9 | COc1ccccc1N1CCN(CCCCN2C(=O)c3ccc(CNC(=O)CCOCCOCCOCCOCCNC(=O)CCc4ccc5n4[B-](F)(F)[N+]4=C(c6ccc[nH]6)C=CC4=C5)cc3C2=O)CC1 [NAN-190-2-NB590] | 0.81 |  | 1.04 | 1.02 | 
10 | CC(C)N(CC[C@H](c1ccccc1)c1cc(CCNC(=O)CCOCCOCCOCCOCCNC(=O)CCc2ccc3n2[B-](F)(F)[N+]2=C(c4ccc[nH]4)C=CC2=C3)ccc1O)C(C)C [Tolterodine-2-NB590] | 0.94 | 1.11 | 0.86 | 0.91 | 
11 | N#CN=C(NCCCOc1cccc(CN2CCCCC2)c1)NCCNC(=O)CCOCCOCCOCCOCCNC(=O)CCc1ccc2n1[B-](F)(F)[N+]1=C(c3ccc[nH]3)C=CC1=C2 [Aminopotentidine-2-NB590] | 1.00 | 1.16 | 1.05 | 1.00 | 
12 | CCOC(=O)c1cc(C#N)c(N2CCC(C(=O)NS(=O)(=O)Cc3ccccc3/C=C/C(=O)NCCNC(=O)CCc3ccc4n3[B-](F)(F)[N+]3=C(c5ccc[nH]5)C=CC3=C4)CC2)nc1C [AZD1283-1-NB590] |  |  |  |  | NanoBRET Fold Response ([1]; CNR2, 0.1μM): 1.04; NanoBRET Fold Response ([1]; CNR2, 1μM): 0.91; NanoBRET Fold Response ([2]; CYSLTR1, 0.1μM): 1.01; NanoBRET Fold Response ([2]; CYSLTR1, 1μM): 0.98
13 | CN(C)CCC=C1c2ccccc2CCc2ccc(C(=O)NCCNC(=O)CCOCCOCCOCCOCCNC(=O)CCc3ccc4n3[B-](F)(F)[N+]3=C(c5ccc[nH]5)C=CC3=C4)cc21 [Amitriptyline-b-2-NB590] | 0.96 | 1.05 | 0.94 | 1.01 | 
14 | O=C(CCc1ccc2n1[B-](F)(F)[N+]1=C(c3ccc[nH]3)C=CC1=C2)NCCOCCOCCNC(=O)OCCOCCN1CCN(C2=Nc3ccccc3Sc3ccccc32)CC1 [Quetiapine-a-2-NB590] | 1.07 | 1.29 | 0.90 | 1.08 | 
15 | Cc1cc2c(s1)Nc1ccccc1N=C2N1CCN(CCCNC(=O)CCOCCOCCOCCOCCNC(=O)CCc2ccc3n2[B-](F)(F)[N+]2=C(c4ccc[nH]4)C=CC2=C3)CC1 [Olanzapine-a-2-NB590] | 0.23 | 1.06 | 1.00 | 1.06 | 
16 | CN1CCN(C2=Nc3cc(Cl)ccc3Nc3ccc(CNC(=O)CCOCCOCCOCCOCCNC(=O)CCc4ccc5n4[B-](F)(F)[N+]4=C(c6ccc[nH]6)C=CC4=C5)cc32)CC1 [Clozapine-b-2-NB590] |  |  |  |  | NanoBRET Fold Response ([1]; CNR2, 0.1μM tracer): 1.05; NanoBRET Fold Response ([2]; CYSLTR1, 0.1μM tracer): 1.10
17 | COc1ccc2c(n1)c(CCNC(C)=O)cn2CCNC(=O)CCc1ccc2n1[B-](F)(F)[N+]1=C(c3ccc[nH]3)C=CC1=C2 [Azamelatonin-1-NB590] |  |  |  |  | NanoBRET Fold Response ([1]; 0.1μM tracer): 0.98; NanoBRET Fold Response ([1]; 1μM tracer): 1.01; NanoBRET Fold Response ([2]; 0.1μM tracer): 0.81; NanoBRET Fold Response ([2]; 1μM tracer): 1.23
18 | O=C(CCc1ccc2n1[B-](F)(F)[N+]1=C(c3ccc[nH]3)C=CC1=C2)NCc1ccc(C(=O)NCCOCCOCCNCC(O)COc2cccc3ccccc23)cc1 (stereo not drawn) [Propranolol-3-NB590] |  |  |  |  | NanoBRET Fold Response ([1]; CNR2, 0.1μM): 0.95; NanoBRET Fold Response ([1]; CNR2, 1μM): 1.01; NanoBRET Fold Response ([2]; CYSLTR1, 0.1μM): 0.71
19 | O=C(CCOCCOCCOCCOCCNC(=O)CCc1ccc2n1[B-](F)(F)[N+]1=C(c3ccc[nH]3)C=CC1=C2)NCCCN1CCN(C2=Nc3cc(Cl)ccc3Nc3ccccc32)CC1 [Clozapine-a-2-NB590] |  |  |  |  | NanoBRET Fold Response ([1]; CNR2, 0.1μM tracer): 1.06; NanoBRET Fold Response ([1]; CNR2, 1μM tracer): 1.19; NanoBRET Fold Response ([2]; CYSLTR1, 0.1μM tracer): 0.98; NanoBRET Fold Response ([2]; CYSLTR1, 1μM tracer): 1.11
